Data published in patent US6756371B1, “Phthalazinone derivatives as PDE4 inhibitors” (Altana Pharma AG, priority 1999, dated 2004).

Assays:
PDE4 = test: Inhibition of PDE4 activity (method of Bauer and Schwabe, adapted to microtitre plates); type: biochemical
Description: Inhibition f PDE 4 Activity
The activity test was carried out according to the method of Bauer and Schwabe, which was adapted to microtitre plates (Naunyn-Schmiederberg's Arch. Pharmacol. 311, 193-198. 1980). In this test, the PDE reaction is carried out in the first step. In a second step, the resultant 5′-nucleotide is cleaved to the uncharged nucleoside by a snake venom 5′-nucleotidase from Crotalus Atrox. In the third step, the nucleoside is separated from the remaining charged substrate on ion exchange columns. The columns are eluted directly into minivials using 2 ml of 30 mM ammonium formate (pH 6.0), to which a further 2 ml or scintillation fluid is added for counting.
The inhibitory values determined for the compounds according to the invention follow from the following table A, in which the numbers of the compounds correspond to the numbers of the examples.

| Structure (SMILES) | melting point [°C] | Inhibition of PDE4 activity [measured as −logIC50 (mol/l)] (PDE4) |
| --- | --- | --- |
| CCOc1ccc(C2=NN(c3ccc(C(=O)N4CCSCC4)cc3)C(=O)[C@H]3CC=CC[C@@H]23)cc1OCC (relative stereo) [compound 3, (cis)-4-(3,4-Diethoxyphenyl)-2-[4-(1-thiomorpholin-4-ylcarbonyl)phenyl]-4a,5,8,8a-tetrahydro-2H-phthalazin-1-one] | 104 to 106 | 7.82 |
| CCOc1ccc(C2=NN(c3ccc(C(=O)N4CCS(=O)(=O)CC4)cc3)C(=O)[C@H]3CC=CC[C@@H]23)cc1OCC (relative stereo) [compound 6, (cis)-4-(3,4-Diethoxyphenyl)-2-[4-(1,1-dioxothiomorpholin-4-ylcarbonyl)phenyl]-4a,5,8,8a-tetrahydro-2H-phthalazin-1-one] | 186 to 187 | 7.81 |
| CCOc1ccc(C2=NN(c3ccc(C(=O)N4CCOCC4)cc3)C(=O)C3CC=CCC23)cc1OCC (stereo not drawn) [compound 1, (cis)-4-(3,4-Diethoxyphenyl)-2-[4-(N-morpholinocarbonyl)phenyl]-4a,5,8,8a-tetrahydro-2H-phthalazin-1-one] | 144 to 145 | 7.99 |
| COc1ccc(C2=NN(c3ccc(C(=O)N4CCOCC4)cc3)C(=O)C3CC=CCC23)c2c1OC(C)(C)C2 (stereo not drawn) [compound 2, (cis)-4-(2,3-Dihydro-2,2-dimethyl-7-methoxybenzofuran-4-yl)-2-[4-(N-morpholinocarbonyl)-phenyl]-4a,5,8,8a-tetrahydro-2H-phthalazin-1-one] |  | 8.77 |
| CCOc1ccc(C2=NN(c3ccc(S(=O)(=O)N4CCOCC4)cc3)C(=O)C3CC=CCC23)cc1OCC (stereo not drawn) [compound 4, (cis)-4-(3,4-Diethoxyphenyl)-2-[4-(N-morpholinosulfonyl)phenyl]-4a,5,8,8a-tetrahydro-2H-phthalazin-1-one] |  | 9.22 |
| COc1ccc(C2=NN(c3ccc(S(=O)(=O)N4CCOCC4)cc3)C(=O)C3CC=CCC23)c2c1OC(C)(C)C2 (stereo not drawn) [compound 5, (cis)-4-(2,3-Dihydro-2,2-dimethyl-7-methoxybenzofuran-4-yl)-2-[4(N-morpholinosulfonyl)phenyl]-4a,5,8,8a-tetrahydro-2H-phthalazin-1-one] |  | 9.71 |
